Data set [1] deals with central cholinergic receptors. Description: 3H-oxotremorine M binding (displacement from rat brain homogenates). The settings on record: rat brain homogenate, 40 min at 30° C., pH 7.4, read-out: 3H-Oxo-M IC50. On the procedure: The new compounds have high affinity to central cholinergic receptors, as measured by the ability of the compounds to displace tritiated oxotremorine-M from rat brain homogenates. The compounds have also high affinity to central muscarinic M-1 receptors, as defined by their ability to displace tritiated pirenzepine from rat brain homogenates. […]
^3 H-oxotremorine M binding was performed essentially as described by Birdsdall et al., 1980. Briefly, rat brains were homogenized in 100 vol (w/v) 10 mM Na,K-phosphate buffer (pH 7.4) and aliquots incubated with ^3 H-oxotremorine M (84.9 Ci/mmol, NEN) alone or in the presence of test compound in a total volume of 1.5 ml for 40 min. at 30° C. The reaction was stopped by adding 5 ml ice-cold buffer and filtered through Whatman GF/B filters soaked previously in 0.1% polyethylenimin (Sigma) for minimum 30 min. The filters were washed once with the same volume of buffer, transferred to scintillation vials and extracted in scintillation fluid (Pico-fluor 15, Packard) for at least two hours before counted in a liquid scintillation spectrometer (Beckman LS 1800). Non-specific binding was estimated at 10 μM atropine and all estimations made in triplicate. At least two displacement curves were made for each compound tested.

Data set [2] deals with T1, central muscarinic M-1 receptors (Rattus norvegicus, UniProt P08482).
T1 sequence (P08482 1-460): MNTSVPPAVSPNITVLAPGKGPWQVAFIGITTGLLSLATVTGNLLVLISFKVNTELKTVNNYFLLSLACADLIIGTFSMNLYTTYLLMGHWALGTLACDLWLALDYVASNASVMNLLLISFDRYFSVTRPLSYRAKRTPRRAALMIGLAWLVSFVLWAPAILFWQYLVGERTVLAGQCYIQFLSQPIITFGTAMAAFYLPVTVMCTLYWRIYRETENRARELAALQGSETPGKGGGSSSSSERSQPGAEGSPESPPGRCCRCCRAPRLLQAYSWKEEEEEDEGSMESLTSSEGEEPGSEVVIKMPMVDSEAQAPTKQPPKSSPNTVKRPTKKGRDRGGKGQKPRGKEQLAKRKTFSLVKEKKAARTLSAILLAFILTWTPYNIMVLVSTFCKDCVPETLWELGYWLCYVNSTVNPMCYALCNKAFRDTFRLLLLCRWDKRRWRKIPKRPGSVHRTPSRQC
Kind of data set: biochemical. The settings on record: rat brain homogenate, 1.0 nM 3H-pirenzepine, 60 min at 25° C. Type of data set: binding. On the procedure: ^3 H-pirenzepine binding was performed essentially as described by Watson et al., 1983, the conditions being very much the same as for ^3 H-oxotremorine binding, except that aliquots were incubated with 1.0 nM ^3 H-pirenzepine for 60 min. at 25° C. and that the reaction was stopped by direct filtration followed by 3 washes with 4 ml buffer.

The conditions of data set [3]: cited from earlier work.
The conditions of data set [4]: after peripheral administration; cited from earlier work.
The conditions of data set [5]: after peripheral administration; cited from earlier work. The source holds these as a separate data set.

Results on 13 compounds are retold here after patent US4923880A, “4,5,6,7-Tetrahydroisothiazolo (4,5-c) pyridine derivatives” (H. Lundbeck A/S, priority 1988, dated 1990).

Counter-ions that a name gives are not always drawn. Like-named read-outs stand apart in the source and are kept apart here.

On to `CCOc1nsc2c1CNCC2` [Compound 5, 3-Ethoxy-4,5,6,7-tetrahydroisothiazolo[4,5-c]pyridine, maleate], for which the IC50 stood at 29 nM in data set [1] and 370 nM in data set [2].
As to `COc1nsc2c1CNCC2C` (stereo not shown) [Compound 18, 3-Methoxy-7-methyl-4,5,6,7-tetrahydroisothiazolo[4,5-c]pyridine, fumarate], the figures for the IC50 in data set [1] and in data set [2] were 24 nM and 130 nM, respectively.
As for `C#CCOc1nsc2c1CNCC2C` (single isomer, unassigned; (-)) [Compound 21, (-)-7-Methyl-3-(2-propynyloxy)-4,5,6,7-tetrahydroisothiazolo[4,5-c]pyridine, fumarate], the IC50 turned out to be 0.93 nM in data set [1] (fumarate) and 8.1 nM in data set [2].
As to `COC(=O)C1=CCCN(C)C1` [Arecoline, methyl 1-methyl-1,2,5,6-tetrahydropyridine-3-carboxylate], in data set [1], the concentration for half-maximal inhibition (IC50) was 1.9 nM. Besides, the “hydrolysis of the ester group in vivo” value in data set [3] is “very rapidly hydrolyzed in vivo”. For the same compound, the “penetration of the BBB” value in data set [4] is listed as “capable of penetrating the BBB after peripheral administration”. Moreover, in data set [5], the central effects entry was “very weak and frequently negligible central effects”.
For the compound `C#CCOc1nsc2c1CNCC2C` (single isomer, unassigned; (+)) [Compound 20, (+)-7-Methyl-3-(2-propynyloxy)-4,5,6,7-tetrahydroisothiazolo[4,5-c]pyridine, fumarate], the IC50 stood at 1.6 nM in data set [1] (fumarate) and 5.5 nM in data set [2].
With `C#CCOc1nsc2c1CN(C)CC2C` (single isomer, unassigned; (-)) [Compound 24, (-)-5,7-Dimethyl-3-(2-propynyloxy)-4,5,6,7-tetrahydroisothiazolo[4,5-c]pyridine, oxalate], the IC50 in data set [1] (oxalate) is 3.8 nM; in data set [2], 4.3 nM.
`C#CCOc1noc2c1CNCC2C` (single isomer, unassigned; (+)) [(+)-O-propargyl-7-Me-THPO, (+)7-methyl-3-(2-propynyloxy)-4,5,6,7-tetrahydroisoxazolo[4,5c]pyridine, reference compound]: the results for the IC50 in data set [1] and in data set [2] were 18 nM and 61 nM, respectively.
For `C#CCOc1nsc2c1CN(C)CC2C` (stereo not drawn) [Compound 22, (-+)-5,7-Dimethyl-3-(2-propynyloxy)-4,5,6,7-tetrahydroisothiazolo[4,5-c]pyridine, oxalate] the same measures were 5.3 nM and 6.7 nM.
Turning to `C=CCOc1nsc2c1CNCC2C` (stereo not drawn) [Compound 25, (-+)-7-Methyl-3-(2-propenyloxy)-4,5,6,7-tetrahydroisothiazolo[4,5-c]pyridine, fumarate], the IC50 in data set [1] is 5.3 nM; in data set [2] it was 11 nM.
Consider `COc1nsc2c1CNCC2` [Compound 3, 3-Methoxy-4,5,6,7-tetrahydroisothiazole[4,5-c]pyridine Hydrochloride], for which the IC50 is 18 nM in data set [1] and 1700 nM in data set [2].
For `C#CCOc1nsc2c1CN(C)CC2C` (single isomer, unassigned; (+)) [Compound 23, (+)-5,7-Dimethyl-3-(2-propynyloxy)-4,5,6,7-tetrahydroisothiazolo[4,5-c]pyridine, oxalate], the IC50 in data set [1] (oxalate) is 18 nM; in data set [2] it was 14 nM.
For `C#CCOc1nsc2c1CNCC2C` (stereo not shown) [Compound 19, 7-Methyl-3-(2-propynyloxy)-4,5,6,7-tetrahydroisothiazolo[4,5-c]pyridine, fumarate], the half-maximal inhibitory concentration (IC50) in data set [1] amounted to 1.8 nM; in data set [2] it was 6.9 nM.
On to `C#CCOc1nsc2c1CNCC2` [Compound 8, 3-(2-Propynyloxy)-4,5,6,7-tetrahydroisothiazole[4,5-c]pyridine, hemifumarate], for which the IC50 in data set [1] was 6.3 nM; in data set [2], 53 nM.
